The text below walks through data of US4560545A, “Basic aluminum magnesium carbonate” (Anphar S.A., priority 1978, dated 1985).

Where two headings read alike, the source gives them in different places.

Assay [1] is described as follows: antacid activity in simulated gastric juice (modified Holbert technique, automatic titrator). It counts as physicochemical. To be noted: for Vol. of gastric juice added: added at 0.7 ml/min. until pH fell below 3; for pH of suspension after 1 min.: about 0.125 g powder in 20 ml, 37° C. The method, then:
Approximately 0.125 g of powder was added to 20 ml of simulated gastric juice (U.S.P.) and stirred vigorously at 37° C. The pH was registered at 1, 5 and 10 minutes and then the automatic burette was started and synthetic gastric juice was added at a rate of 0.7 ml/min. until the pH fell below 3. The time taken and the amount of gastric juice added to reach pH 3 was observed.

The procedure of assay [2]:
The ability of compound I to absorb bile acids was measured at pH 7 and pH 4 (the analytical method was based on the reaction between sulphuric acid, furfural and cholic acid; Pettenkofer, Ann. Chem. Pharm. 52, 90, 1884). The product was suspended in the appropriate buffer and a solution of the bile acid or ox bile was added, samples being taken at intervals of time.

Assay [3] concerns ulcers. As to the kind of experiment: 18 hour pyloric ligature: incidence of ulcers. Format: in vivo. To be noted: rats, 18 hours ligature.
For the next assay, the system named is gastric acid secretion. To be noted: human volunteers, pentagastrin 6 μg/kg i.m., 1 g suspension 30 minutes later, versus aluminium hydroxide gel. The method, then: Gastric acid secretion was induced by injection of pentagastrin (6 μg/kg i.m.). Thirty minutes later a suspension of 1 g of compound I or aluminium hydroxide was given (2 groups of 6 volunteers, double blind parallel). Samples of gastric juice were taken before giving pentagastrin (basal level), 30 minutes after injection of pentagastrin and at intervals of 30, 60, 90 and 120 minutes after giving the antacids. In each case the pH, free acid content and pepsin content were measured.

The conditions of assay [4]: pH stat, pH 4, suspension in water.
The subject of assay [5] is ulcers. As to the kind of experiment: bile-sensitized stomach, ulcerogenic action of indomethacin. The conditions noted are these: rat stomach sensitized with bile, 31.25-125 mg/kg orally.
Text: (§1) In a further series of experiments the detergent action of bile was used to sensitize the rat stomach to the ulcerogenic action of indomethacin.
The test system of another assay is pepsin. To be noted: rats, 4 hour ligature; for reduction of pepsin enzyme activity of gastric juice: at the higher doses.
Assay [6] can be described thus: 4 hour pyloric ligature of the stomach: pH and total acid content of stomach contents. To be noted: rats, 31.25-500 mg/kg orally 1 hour before sacrifice.
Text: as §1
[7] abbreviates: gastric juice DP, double quantity of pepsin.
Setting [8] is: gastric juice DP, with double quantity of pepsin.
Where [9] appears, read: gastric juice N, normal U.S.P. simulated gastric juice.
Where [10] appears, read: gastric juice SP, without pepsin.

Text for pepsin: as §1

In the case of “basic aluminium magnesium carbonate [compound I]”, the buffering capacity entry in assay [1] (U.S.P. simulated gastric juice) is reported as “highest buffering capacity”. Besides, the “Vol. of gastric juice added” value was 22.36 mL in assay [1] (setting [7]); 21.2 mL in assay [1] (gastric juice N, normal U.S.P.); 10.9 mL in assay [1] (setting [10]). The “pH of suspension after 1 min.” value in assay [1] (setting [8]) is recorded as 4.55; in assay [1] (setting [9]), 4.25; in assay [1] (setting [10]), 4.00. The velocity of neutralisation entry in assay [1] (pH after 1 minute in the optimal zone, pH 3-5) is recorded as “high velocity of neutralisation”. The “ability to absorb acid in the presence of pepsin” value in assay [1] (simulated gastric juice with pepsin versus without) was “increased ability to absorb acid in the presence of pepsin”. The “Percentage absorption of bile acids” value is 80.5 Percentage in assay [2] (Cholic Acid, Buffer pH 4, 1 hr); 86.3 Percentage in assay [2] (Cholic Acid, Buffer pH 4, 3 hr); 0 Percentage in assay [2] (Cholic Acid, Buffer pH 7, 1 hr); 12 Percentage in assay [2] (Cholic Acid, Buffer pH 7, 3 hr); 69.0 Percentage in assay [2] (Ox bile, Buffer pH 4, 1 hr); 70.0 Percentage in assay [2] (Ox bile, Buffer pH 4, 3 hr). Further, the “Percentage absorption of bile acids” value in assay [2] (Ox bile, Buffer pH 7, 1 hr) was 17.3 Percentage; in assay [2] (Ox bile, Buffer pH 7, 3 hr), 25.8 Percentage; in assay [2] (Taurocholic acid, Buffer pH 4, 1 hr) it was 65.4 Percentage; in assay [2] (Taurocholic acid, Buffer pH 4, 3 hr), 71.7 Percentage; in assay [2] (Taurocholic acid, Buffer pH 7, 1 hr) it was 0.6 Percentage; in assay [2] (Taurocholic acid, Buffer pH 7, 3 hr), 20.8 Percentage. Also, the “reduction in the incidence of ulcers compared with placebo treated controls” value in the assay with ulcers [3] (31.25 mg/kg orally at the same time as the operation) is on record as 58%. Moreover, the “antipepsin effect (pepsin content of gastric juice)” value in the assay on gastric acid secretion is given as “greater antipepsin effect”. For the same molecule, in the assay with gastric acid secretion, the “reduction of free hydrochloric acid levels in gastric juice” value was “reduced the free hydrochloric acid levels more rapidly and had a longer duration of action than aluminium hydroxide gel”. Further, the acid-binding capacity entry in assay [4] is “higher at pH 4 than any of the other substances”. The “reduction of the incidence of ulcers (inhibition)” value with ulcers [5] is “up to 54%”. Further, the “reduction of pepsin enzyme activity of gastric juice” value in the assay on pepsin is listed as 78.9%. In addition, in the assay with pepsin (higher doses, pH readjusted to 2 (optimal for pepsin activity)), the “reduction of pepsin enzyme activity, pH of the gastric juice readjusted to 2” value came out at 32.5%. The “effect on pH of the stomach contents” value in assay [6] was “dose dependent increases in the pH of the stomach contents”. Besides, the “reduction of total acid content” value in assay [6] was “up to 85%”.

Turning to `[OH][Al]([OH])[OH]` [aluminium hydroxide, reference compound], the reduction in ulceration in the assay with ulcers [3] (125 mg/kg) is recorded as 43%. In addition, in the assay on ulcers [5], the “reduction of the incidence of ulcers (inhibition)” value was found to be 32%. In the assay with pepsin, the “reduction of pepsin enzyme activity of gastric juice” value is “without effect on the pepsin activity”. Further, in assay [6], the “effect on pH of the stomach contents” value is given as “much less influence on pH” and the “reduction of total acid content” value is reported as 12%.

As for dry aluminium hydroxide gel U.S.P. [F1], the “Vol. of gastric juice added” value was 4.80 mL in assay [1] (setting [7]); 7.40 mL in assay [1] (gastric juice N, normal U.S.P.); 17.43 mL in assay [1] (setting [10]). Moreover, the “pH of suspension after 1 min.” value in assay [1] (setting [8]) is given as 2.79; in assay [1] (setting [9]), 2.93; in assay [1] (setting [10]) it was 3.30.

With Magaldrate U.S.P. [F2], the “Vol. of gastric juice added” value was 2.40 mL in assay [1] (setting [7]); 1.70 mL in assay [1] (gastric juice N, normal U.S.P.); 1.92 mL in assay [1] (setting [10]). Moreover, the “pH of suspension after 1 min.” value in assay [1] (setting [8]) is recorded as 2.65; in assay [1] (setting [9]), 1.95; in assay [1] (setting [10]), 1.40.
